The values below come from PubChem BioAssay (NCI).

Some test systems named below: OVCAR-5 ovarian; SK-OV-3 ovarian; MOLT-4 leukemia; SNB-19 CNS; OVCAR-3 ovarian; NCI-H23 lung; TK-10 renal; SK-MEL-28 melanoma; SW-620 colon; MALME-3M melanoma.
What all share (assay): growth of human tumour cells (NCI), 48 h

Several values for one entry are separate records, joined by “and”; a condition that tells them apart may be missing. Identical values can stand only once.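 Step 1: Grow cells in 96-well plates. Step 2: Expose to compound for 48 hours at 5 concentrations. Step 3: Interpolate endpoints linearly; if unreached, use highest concentration. GI50: concentration for 50% inhibition of growth. At the TGI there is no net growth.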

As for `COC(=O)[C@@H](C)C[C@H](Cc1ccccc1)NC(=O)c1csc([C@@H](C[C@H](C(C)C)N(C)C(=O)[C@@H](NC(=O)[C@H]2CCCCN2C)c2ccc(F)cc2)OC(C)=O)n1`, the TGI in the assay with OVCAR-5 ovarian is 25 µM and > 100 µM; in the assay with SK-OV-3 ovarian, 25 µM and > 100 µM; in the assay on MOLT-4 leukemia it was 8.45 µM and 54.4 µM; with SNB-19 CNS, over 100 µM; in the assay with OVCAR-3 ovarian, 0.0157 µM and 0.129 µM; with NCI-H23 lung, 25 µM and > 100 µM. Besides, the TGI in the assay on TK-10 renal was 25 µM and > 100 µM; in the assay with SK-MEL-28 melanoma it was over 100 µM; in the assay with SW-620 colon, 25 µM and > 100 µM. Moreover, the GI50 in the assay with SNB-19 CNS is 0.0163 µM and 0.0441 µM; in the assay with OVCAR-3 ovarian, 0.00309 µM and 0.0103 µM.

As for `CN1CCN(c2ccncc2S(=O)(=O)N2CCN(C)CC2)CC1`, the TGI in the assay on OVCAR-5 ovarian, in the assay on SK-OV-3 ovarian, in the assay on SNB-19 CNS, in the assay with OVCAR-3 ovarian, in the assay on NCI-H23 lung and in the assay on TK-10 renal was over 100 µM in each case. Moreover, the TGI in the assay on SK-MEL-28 melanoma, in the assay on MALME-3M melanoma and with SW-620 colon was over 100 µM in each case.

Regarding `Cc1cccc2c(=O)c3c(sc12)c(NCCCN)nc1ccccc13`, the GI50 is 1.56 µM in the assay with OVCAR-5 ovarian; 1.35 µM in the assay on MOLT-4 leukemia; 1.68 µM with OVCAR-3 ovarian; 1.76 µM with NCI-H23 lung; 1.89 µM with SK-MEL-28 melanoma; 1.61 µM with MALME-3M melanoma. The GI50 in the assay with SW-620 colon is 1.19 µM. Further, the TGI in the assay with OVCAR-5 ovarian is 3.03 µM; with MOLT-4 leukemia it was 3.06 µM; in the assay on OVCAR-3 ovarian, 3.16 µM; with NCI-H23 lung it was 3.5 µM; with SK-MEL-28 melanoma, 3.41 µM; in the assay with MALME-3M melanoma it was 3.09 µM. In the assay with SW-620 colon, the TGI was 2.66 µM.

With `Cc1cc2[nH]c(=O)c3c4ncccc4cn3c2cc1C`, the GI50 was over 100 µM in the assay with OVCAR-5 ovarian; 6.62 µM in the assay on SK-OV-3 ovarian; 3.54 µM with MOLT-4 leukemia; 5.48 µM with SNB-19 CNS; 2.02 µM in the assay with OVCAR-3 ovarian; 8.86 µM in the assay with NCI-H23 lung. Besides, the GI50 is 4.36 µM in the assay with TK-10 renal, 4.7 µM in the assay on SK-MEL-28 melanoma and 2.89 µM in the assay with SW-620 colon. Besides, the TGI in the assay with OVCAR-5 ovarian was over 100 µM; in the assay with SK-OV-3 ovarian, 73.7 µM; with MOLT-4 leukemia, over 100 µM; in the assay on SNB-19 CNS, over 100 µM; in the assay with OVCAR-3 ovarian, 4.33 µM; with NCI-H23 lung, over 100 µM. The TGI with TK-10 renal was 61.8 µM; with SK-MEL-28 melanoma it was over 100 µM; with SW-620 colon it was over 100 µM.

Turning to `CSc1ccc(Cc2cc(C(C)(C)C)cc(C(C)(C)C)c2O)cc1`, the TGI came out at 13.2 µM in the assay on OVCAR-5 ovarian; 42.4 µM in the assay on SK-OV-3 ovarian; 23.8 µM in the assay on MOLT-4 leukemia; 29.9 µM in the assay with SNB-19 CNS; 28.7 µM with NCI-H23 lung; 25.7 µM in the assay with TK-10 renal. In addition, the TGI turned out to be 30.8 µM with SK-MEL-28 melanoma, 28.7 µM with MALME-3M melanoma and 29.7 µM with SW-620 colon.

As to `O=C(N/C(=C\c1cccc([N+](=O)[O-])c1)c1nc2c3c(ccc2[nH]1)C(=O)c1ccccc1C3=O)c1ccccc1`, the TGI is 90.4 µM with OVCAR-5 ovarian; 78 µM in the assay with SK-OV-3 ovarian; over 100 µM with SNB-19 CNS; over 100 µM in the assay on OVCAR-3 ovarian; over 100 µM in the assay on NCI-H23 lung; 82.2 µM in the assay with TK-10 renal. Further, the TGI is 85.8 µM with SK-MEL-28 melanoma, over 100 µM in the assay on MALME-3M melanoma and over 100 µM in the assay on SW-620 colon.

On to `CON1C(=O)C2(CCCCC2)C(=O)C12C=CC(C)CC2` (stereo not given), for which the TGI in the assay on SK-OV-3 ovarian, in the assay on MOLT-4 leukemia, in the assay with SNB-19 CNS, in the assay on OVCAR-3 ovarian, in the assay on NCI-H23 lung and in the assay on TK-10 renal was over 100 µM in each case. Further, the TGI in the assay on SK-MEL-28 melanoma, with MALME-3M melanoma and in the assay on SW-620 colon was over 100 µM in each case.

As to `CO[C@H]1/C=C/O[C@@]2(C)Oc3c(C)c(O)c4c(O)c(c(/C=N/N5C(C)CN(Cc6ccc(C#N)cc6)CC5C)c(O)c4c3C2=O)NC(=O)/C(C)=C\C=C\[C@H](C)[C@H](O)[C@@H](C)[C@@H](O)[C@@H](C)[C@H](OC(C)=O)[C@@H]1C` (stereo not given in full), the GI50 in the assay with OVCAR-5 ovarian is 8.88 µM; in the assay on SK-OV-3 ovarian, 9.55 µM; with SNB-19 CNS, 7.55 µM; in the assay with OVCAR-3 ovarian it was 6.99 µM; in the assay with NCI-H23 lung, 9.67 µM; with TK-10 renal, 7.92 µM. The results for the GI50 in the assay on SK-MEL-28 melanoma, in the assay with MALME-3M melanoma and in the assay with SW-620 colon were 8.45 µM, 8.56 µM and 8.15 µM, respectively. Also, the TGI in the assay on OVCAR-5 ovarian stood at 18.1 µM; in the assay on SK-OV-3 ovarian, 23.4 µM; in the assay with SNB-19 CNS it was 18.1 µM; with OVCAR-3 ovarian it was 13.5 µM; in the assay with NCI-H23 lung it was 30.7 µM; with TK-10 renal it was 18.8 µM. In addition, the values for the TGI in the assay with SK-MEL-28 melanoma, with MALME-3M melanoma and in the assay with SW-620 colon were 16.4 µM, 20.5 µM and 17.5 µM, respectively.

For the compound `Cc1cc(C)c([I+]c2c(C)cc(C)cc2C)c(C)c1`, the GI50 with OVCAR-5 ovarian was 0.781 µM; in the assay with SK-OV-3 ovarian it was 1.14 µM; in the assay on SNB-19 CNS, 0.444 µM; in the assay on OVCAR-3 ovarian, 0.379 µM; in the assay with NCI-H23 lung it was 0.334 µM; in the assay on TK-10 renal, 0.712 µM. In addition, the GI50 in the assay on SK-MEL-28 melanoma was 0.774 µM; with MALME-3M melanoma, 0.37 µM. The TGI in the assay on OVCAR-5 ovarian came to 2.09 µM; with SK-OV-3 ovarian, 2.37 µM; in the assay on SNB-19 CNS it was 1.76 µM; in the assay with OVCAR-3 ovarian, 1.62 µM; with NCI-H23 lung it was 1.83 µM; with TK-10 renal, 2.06 µM. The values for the TGI in the assay with SK-MEL-28 melanoma and in the assay with MALME-3M melanoma were 2.08 µM and 1.46 µM, respectively.

Take `CCCCCCCCCCNC(=S)OC`: the TGI with SK-OV-3 ovarian was over 100 µM; in the assay with MOLT-4 leukemia, 30.8 µM; with SNB-19 CNS it was over 100 µM; in the assay with NCI-H23 lung it was over 100 µM; with TK-10 renal, over 100 µM; with SK-MEL-28 melanoma it was over 100 µM. Further, the TGI in the assay on MALME-3M melanoma and in the assay on SW-620 colon was over 100 µM throughout.

On to `C=CCC1(CN(C)C)CC/C(=C\c2cc(OC)c(OC)c(OC)c2)C1=O` (stereo not given), for which the TGI is over 100 µM in the assay on OVCAR-5 ovarian; 78.8 µM in the assay on MOLT-4 leukemia; over 100 µM in the assay on SNB-19 CNS; 69.2 µM with OVCAR-3 ovarian; over 100 µM in the assay with NCI-H23 lung; 36.4 µM with TK-10 renal. In addition, the TGI was over 100 µM in the assay with SK-MEL-28 melanoma, over 100 µM in the assay on MALME-3M melanoma and 33.6 µM in the assay on SW-620 colon.
